Laboratory results taken from ChEMBL document CHEMBL1131846, “Selective A1-adenosine receptor antagonists identified using yeast Saccharomyces cerevisiae functional assays” (Bioorg Med Chem Lett, 1999).

Columns and labels:
Adenosine receptor A1 [1] = target: T1, Adenosine receptor A1 (Homo sapiens, UniProt P30542); assay: Inhibitory activity against binding of [3H]DPCPX to human A1 receptor (hA1) using competition binding assay
T1 sequence (P30542 whole entry): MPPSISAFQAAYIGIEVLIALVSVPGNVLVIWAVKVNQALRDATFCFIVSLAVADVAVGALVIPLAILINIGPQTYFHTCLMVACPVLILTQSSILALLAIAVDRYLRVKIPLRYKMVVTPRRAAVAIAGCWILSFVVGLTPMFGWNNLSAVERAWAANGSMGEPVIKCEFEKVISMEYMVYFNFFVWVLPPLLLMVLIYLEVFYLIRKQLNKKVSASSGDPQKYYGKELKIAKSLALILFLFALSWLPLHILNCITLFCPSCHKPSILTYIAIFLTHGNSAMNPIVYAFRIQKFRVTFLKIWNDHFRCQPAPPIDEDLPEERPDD

Adenosine receptor A1 [2] = target: T1, Adenosine receptor A1; assay: Inhibitory activity against binding of the [3H]DPCPX to human A1 receptor (hA1) radioligands using competition binding assay
Adenosine receptor A1 [3] = target: T1, Adenosine receptor A1; assay: Inhibitory activity against membranes from yeast cells transformed with human A1 receptor (hA1); format: cell-based
Adenosine receptor A2a [4] = target: T2, Adenosine receptor A2a (Homo sapiens, UniProt P29274); assay: Inhibitory activity against binding of [3H]CGS-21680 to human A2a receptor (hA2a) using competition binding assay
Adenosine receptor A2a [5] = target: T2, Adenosine receptor A2a; assay: Inhibitory activity against membranes from HEK293 cells stably expressing the human A2a receptor (hA2a); format: cell-based
Adenosine receptor A2a [6] = target: T2, Adenosine receptor A2a; assay: Inhibitory activity against binding of the [3H]CGS-21680 to human A2a receptor (hA2a) radioligands using competition binding assay
Adenosine receptor A2a [7] = target: T2, Adenosine receptor A2a; assay: Inhibitory activity against binding of [3H]CGS-21680 to human A2a receptor (hA2a) using competition binding assay at a concentration of 10 uM
Adenosine receptor A2a [8] = target: T2, Adenosine receptor A2a; assay: Inhibitory activity against binding of the [3H]CGS-21680 to human A2a receptor (hA2a) radioligands using competition binding assay at a concentration of 10 uM
[9] = target: T3, Adenosine receptor A1 (Homo sapiens) (UniProt P30542); assay: Inhibitory activity against binding of [3H]DPCPX to human A1 receptor (hA1) using competition binding assay at a concentration of 10 uM
T3 sequence (whole entry): T1 sequence (P30542 whole entry)

[10] = target: T3, Adenosine receptor A1 (Homo sapiens); assay: Inhibitory activity against binding of the [3H]DPCPX to human A1 receptor (hA1) radioligands using competition binding assay at a concentration of 10 uM
Adenosine receptor A2a [11] = target: T2, Adenosine receptor A2a; assay: Inhibitory activity against membranes from HEK293 cells stably expressing the human A2a receptor (hA2a) at a concentration of 10 uM; format: cell-based

T2 sequence (P29274 whole entry): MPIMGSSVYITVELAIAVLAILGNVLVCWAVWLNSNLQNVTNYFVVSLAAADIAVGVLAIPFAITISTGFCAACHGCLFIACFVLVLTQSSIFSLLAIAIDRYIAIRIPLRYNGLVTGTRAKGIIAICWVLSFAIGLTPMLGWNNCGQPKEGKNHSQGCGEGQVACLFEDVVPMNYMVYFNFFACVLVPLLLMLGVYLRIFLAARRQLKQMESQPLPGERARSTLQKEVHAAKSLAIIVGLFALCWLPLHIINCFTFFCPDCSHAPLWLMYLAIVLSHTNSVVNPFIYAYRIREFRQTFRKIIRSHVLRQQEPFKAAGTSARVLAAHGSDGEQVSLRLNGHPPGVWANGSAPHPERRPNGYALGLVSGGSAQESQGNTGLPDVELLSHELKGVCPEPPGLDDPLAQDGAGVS

| Structure (SMILES) | IC50 (Adenosine receptor A1 [1]) [µM] | Ki (Adenosine receptor A1 [2]) [µM] | IC50 (Adenosine receptor A1 [3]) [µM] | IC50 (Adenosine receptor A2a [4]) [µM] | IC50 (Adenosine receptor A2a [5]) [µM] | Ki (Adenosine receptor A2a [6]) [µM] | inhibition (Adenosine receptor A2a [7]) [%] | inhibition (Adenosine receptor A2a [8]) [%] | inhibition [9] [%] | inhibition [10] [%] | inhibition (Adenosine receptor A2a [11]) [%] |
| --- | --- | --- | --- | --- | --- | --- | --- | --- | --- | --- | --- |
| Cc1[nH]c2nc(-c3ccccc3)nc(N[C@@H]3CCCCNC3=O)c2c1C | 1.54 | 0.771 | 1.26 | 2.06 | 2.11 | 0.962 |  |  |  |  |  |
| Cc1[nH]c2nc(-c3ccccc3)nc(NCCCN3CCCC3=O)c2c1C |  |  | 5.65 |  |  |  | 54 | 54 | 75 | 75 | 58 |
| CC(=O)NCCNc1nc(-c2ccccc2)nc2[nH]c(C)c(C)c12 |  |  |  | 0.048 | 0.048 | 0.023 |  |  |  |  |  |
| Cc1[nH]c2nc(-c3ccccc3)nc(N[C@H](CO)CC(C)C)c2c1C | 1.91 | 0.951 | 1.75 | 3.4 | 2.68 | 1.14 |  |  |  |  |  |

Continued by falling IC50 (Adenosine receptor A1 [3]), values first:

| IC50 (Adenosine receptor A1 [1]) [µM] | Ki (Adenosine receptor A1 [2]) [µM] | IC50 (Adenosine receptor A1 [3]) [µM] | IC50 (Adenosine receptor A2a [4]) [µM] | IC50 (Adenosine receptor A2a [5]) [µM] | Ki (Adenosine receptor A2a [6]) [µM] | inhibition (Adenosine receptor A2a [7]) [%] | inhibition (Adenosine receptor A2a [8]) [%] | inhibition [9] [%] | inhibition [10] [%] | inhibition (Adenosine receptor A2a [11]) [%] | Structure (SMILES) |
| --- | --- | --- | --- | --- | --- | --- | --- | --- | --- | --- | --- |
| 1.81 | 0.896 | 1.7 |  | 3.22 |  | 59 | 59 |  |  |  | Cc1[nH]c2nc(-c3ccccc3)nc(N[C@@H]3Cc4ccccc4[C@H]3O)c2c1C |
| 1.98 | 0.981 | 1.61 |  | 3.88 |  | 61 | 61 |  |  |  | Cc1nc2nc(-c3ccccc3)[nH]c(N[C@H](C)c3ccccc3)c-2c1C |
| 0.364 | 0.144 | 0.422 | 0.604 | 0.725 | 0.215 |  |  |  |  |  | Cc1[nH]c2nc(-c3ccccc3)nc(NCCN3CCNC3=O)c2c1C |
| 0.262 | 0.132 | 0.222 | 1.71 | 2.01 | 0.811 |  |  |  |  |  | Cc1[nH]c2nc(-c3ccccc3)nc(NCc3ccncc3)c2c1C |
